Here are results for one compound from paper PMC5218480 (PLoS ONE, 2017).

This experiment concerns MV-4-11 cells. Put plainly: Gene expression microarray analysis (Affymetrix PrimeView) and GSEA. The experiment is classed as cell-based, human. The arrangement: RFU PODN (11730768_x_at) / Fold change /veh PODN (11730768_x_at) / RFU LINC00158 (11744669_a_at) / Fold change /veh LINC00158 (11744669_a_at) / RFU DUSP10 (11751237_a_at) / Fold change /veh DUSP10 (11751237_a_at) / RFU ID3 (11757404_x_at) / Fold change /veh ID3 (11757404_x_at) / RFU PLEKHG5 (11737974_s_at) / Fold change /veh PLEKHG5 (11737974_s_at) / RFU LRRC4B (11730491_at) / Fold change /veh LRRC4B (11730491_at) / RFU GIMAP4 (11747438_a_at) / Fold change /veh GIMAP4 (11747438_a_at) / RFU KRT8 (11758183_x_at) / Fold change /veh KRT8 (11758183_x_at) / RFU CNN1 (11734310_a_at) / Fold change /veh CNN1 (11734310_a_at) / RFU VPS37D (11726825_at) / Fold change /veh VPS37D (11726825_at) / RFU C10orf10 (11716522_x_at) / Fold change /veh C10orf10 (11716522_x_at) / RFU KIR2DL2 /// KIR2DL4 /// KIR2DL5A /// KIR2DL5B /// KIR2DS1 /// KIR2DS2 /// KIR2DS3 /// KIR2DS4 /// KIR3DL3 /// KIR3DL3 /// KIR3DS1 (11738374_at) / Fold change /veh KIR2DL2 /// KIR2DL4 /// KIR2DL5A /// KIR2DL5B /// KIR2DS1 /// KIR2DS2 /// KIR2DS3 /// KIR2DS4 /// KIR3DL3 /// KIR3DL3 /// KIR3DS1 (11738374_at) / RFU C1QL1 (11718748_at) / Fold change /veh C1QL1 (11718748_at) / RFU TMPRSS4 (11747572_a_at) / Fold change /veh TMPRSS4 (11747572_a_at) / RFU HAMP (11756126_x_at) / Fold change /veh HAMP (11756126_x_at) / RFU RNFT2 (11725882_a_at) / Fold change /veh RNFT2 (11725882_a_at) / RFU NR4A2 (11747474_a_at) / Fold change /veh NR4A2 (11747474_a_at) / RFU ABCC12 (11746883_a_at) / Fold change /veh ABCC12 (11746883_a_at) / RFU TMEM136 (11760407_x_at) / Fold change /veh TMEM136 (11760407_x_at) / RFU CLDN22 /// WWC2 (11732394_at) / Fold change /veh CLDN22 /// WWC2 (11732394_at) / RFU HLA-DPB1 (11760878_x_at) / Fold change /veh HLA-DPB1 (11760878_x_at) / RFU SPINT1 (11716480_a_at) / Fold change /veh SPINT1 (11716480_a_at) / RFU GAP43 (11754022_s_at) / Fold change /veh GAP43 (11754022_s_at) / RFU A4GNT (11735810_at) / Fold change /veh A4GNT (11735810_at) / RFU PRB3 (11715151_x_at) / Fold change /veh PRB3 (11715151_x_at) / RFU TUBB4B (11761932_at) / Fold change /veh TUBB4B (11761932_at) / RFU CAPN14 (11732068_a_at) / Fold change /veh CAPN14 (11732068_a_at) / RFU TMCC2 (11721928_a_at) / Fold change /veh TMCC2 (11721928_a_at) / RFU IRGQ (11745062_a_at) / Fold change /veh IRGQ (11745062_a_at) / RFU FAM174B (11720279_a_at) / Fold change /veh FAM174B (11720279_a_at) / RFU TMPRSS4 (11748680_a_at) / Fold change /veh TMPRSS4 (11748680_a_at) / RFU FAM212B (11763350_a_at) / Fold change /veh FAM212B (11763350_a_at) / RFU PLEKHG5 (11743358_a_at) / Fold change /veh PLEKHG5 (11743358_a_at) / RFU ZSCAN30 (11745921_a_at) / Fold change /veh ZSCAN30 (11745921_a_at) / RFU CMKLR1 (11741424_a_at) / Fold change /veh CMKLR1 (11741424_a_at) / RFU LOC101060620 /// MAPK8IP1 (11723275_at) / Fold change /veh LOC101060620 /// MAPK8IP1 (11723275_at) / RFU SPTSSB (11747773_x_at) / Fold change /veh SPTSSB (11747773_x_at) / RFU PRSS12 (11739890_at) / Fold change /veh PRSS12 (11739890_at) / RFU BIN1 (11741810_x_at) / Fold change /veh BIN1 (11741810_x_at) / RFU WNT11 (11732464_a_at) / Fold change /veh WNT11 (11732464_a_at) / RFU C10orf10 (11716521_a_at) / Fold change /veh C10orf10 (11716521_a_at) / RFU C5orf56 (11738089_at) / Fold change /veh C5orf56 (11738089_at) / RFU CYB561 (11721691_x_at) / Fold change /veh CYB561 (11721691_x_at) / RFU ANKRD19P (11752326_a_at) / Fold change /veh ANKRD19P (11752326_a_at) / RFU OR2T12 /// OR2T33 /// OR2T8 (11738714_s_at) / Fold change /veh OR2T12 /// OR2T33 /// OR2T8 (11738714_s_at) / RFU VCAN (11748164_a_at) / Fold change /veh VCAN (11748164_a_at) / RFU JSRP1 (11732532_at) / Fold change /veh JSRP1 (11732532_at) / RFU KRTAP10-11 (11738290_x_at) / Fold change /veh KRTAP10-11 (11738290_x_at) / RFU MYO3A (11730013_a_at) / Fold change /veh MYO3A (11730013_a_at) / RFU EBF3 (11725865_a_at) / Fold change /veh EBF3 (11725865_a_at) / RFU CAMK2N1 (11719241_x_at) / Fold change /veh CAMK2N1 (11719241_x_at) / RFU C5orf56 (11738088_a_at) / Fold change /veh C5orf56 (11738088_a_at) / RFU OLFML3 (11715873_a_at) / Fold change /veh OLFML3 (11715873_a_at) / RFU LOC100653217 /// NTM (11731650_a_at) / Fold change /veh LOC100653217 /// NTM (11731650_a_at) / RFU MAPK11 (11762145_a_at) / Fold change /veh MAPK11 (11762145_a_at) / RFU FIZ1 (11724087_x_at) / Fold change /veh FIZ1 (11724087_x_at) / RFU OASL (11726364_x_at) / Fold change /veh OASL (11726364_x_at) / RFU SOX15 (11748057_x_at) / Fold change /veh SOX15 (11748057_x_at) / RFU CD79A (11719716_a_at) / Fold change /veh CD79A (11719716_a_at) / RFU HIST1H1D (11736915_at) / Fold change /veh HIST1H1D (11736915_at) / RFU CASKIN2 (11723855_a_at) / Fold change /veh CASKIN2 (11723855_a_at) / RFU LOC730098 (11760151_x_at) / Fold change /veh LOC730098 (11760151_x_at) / RFU OR4N2 (11742367_at) / Fold change /veh OR4N2 (11742367_at) / RFU PRRT2 (11749266_a_at) / Fold change /veh PRRT2 (11749266_a_at) / RFU SNX32 (11753110_a_at) / Fold change /veh SNX32 (11753110_a_at) / RFU CDHR5 (11726645_a_at) / Fold change /veh CDHR5 (11726645_a_at) / RFU RCAN1 (11760418_a_at) / Fold change /veh RCAN1 (11760418_a_at) / RFU FAM167A (11723789_a_at) / Fold change /veh FAM167A (11723789_a_at) / RFU FAM26E (11764081_at) / Fold change /veh FAM26E (11764081_at) / RFU ISYNA1 (11749810_s_at) / Fold change /veh ISYNA1 (11749810_s_at) / RFU ACY1 (11761880_at) / Fold change /veh ACY1 (11761880_at) / RFU 11764098_at / Fold change /veh 11764098_at / RFU SAMD14 (11745864_x_at) / Fold change /veh SAMD14 (11745864_x_at) / RFU NPB (11741838_a_at) / Fold change /veh NPB (11741838_a_at) / RFU TMPRSS6 (11731388_a_at) / Fold change /veh TMPRSS6 (11731388_a_at) / RFU KRTAP10-2 (11738614_at) / Fold change /veh KRTAP10-2 (11738614_at) / RFU ARHGAP8 /// PRR5-ARHGAP8 (11727945_x_at) / Fold change /veh ARHGAP8 /// PRR5-ARHGAP8 (11727945_x_at) / RFU KRTAP5-7 /// NADSYN1 (11734609_at) / Fold change /veh KRTAP5-7 /// NADSYN1 (11734609_at) / RFU RASL12 (11751679_a_at) / Fold change /veh RASL12 (11751679_a_at) / RFU CDKN2B (11736163_a_at) / Fold change /veh CDKN2B (11736163_a_at) / RFU PRF1 (11729649_at) / Fold change /veh PRF1 (11729649_at) / RFU, ZNF638 /// ZNF638-IT1 / Fold change vs veh, ZNF638 /// ZNF638-IT1 / RFU, PANK3 / Fold change vs veh, PANK3 / RFU, SH3YL1 / Fold change vs veh, SH3YL1 / RFU, ZEB2 / Fold change vs veh, ZEB2 / RFU, NRIP1 / Fold change vs veh, NRIP1 / RFU, PTTG1IP / Fold change vs veh, PTTG1IP / RFU, CAPN2 / Fold change vs veh, CAPN2 / RFU, MED14 / Fold change vs veh, MED14 / RFU, SNORA58 / Fold change vs veh, SNORA58 / RFU, C1orf63 / Fold change vs veh, C1orf63 / RFU, LRRFIP1 / Fold change vs veh, LRRFIP1 / RFU, NDUFAF7 / Fold change vs veh, NDUFAF7 / RFU, SLC12A2 / Fold change vs veh, SLC12A2 / RFU, IBTK / Fold change vs veh, IBTK / RFU, ESF1 / Fold change vs veh, ESF1 / Fold change vs veh, TMEM50B / RFU, TAOK1 / Fold change vs veh, TAOK1 / RFU, ACBD3 / Fold change vs veh, ACBD3 / RFU, TMA16 / Fold change vs veh, TMA16 / RFU, RWDD3 / Fold change vs veh, RWDD3 / RFU, BCAT1 / Fold change vs veh, BCAT1 / RFU, EDEM3 / Fold change vs veh, EDEM3 / RFU, TMEM33 / Fold change vs veh, TMEM33 / RFU, WDR75 / Fold change vs veh, WDR75 / RFU, AHCTF1 / Fold change vs veh, AHCTF1 / RFU, TFRC / Fold change vs veh, TFRC / RFU, ZDHHC17 / Fold change vs veh, ZDHHC17 / RFU, NOM1 / Fold change vs veh, NOM1 / RFU, ARL8B / Fold change vs veh, ARL8B / RFU, ZBTB11 / Fold change vs veh, ZBTB11 / RFU, TAMM41 / Fold change vs veh, TAMM41 / RFU, KIAA1704 /// LOC100996395 / Fold change vs veh, KIAA1704 /// LOC100996395 / RFU, ING1 / Fold change vs veh, ING1 / RFU, TRMT61B / Fold change vs veh, TRMT61B / RFU, FUBP3 / Fold change vs veh, FUBP3 / RFU, TP53 / Fold change vs veh, TP53 / RFU, TNKS2 / Fold change vs veh, TNKS2 / RFU, ZFP14 / Fold change vs veh, ZFP14 / RFU, ACTR2 / Fold change vs veh, ACTR2 / RFU, PPP3R1 / Fold change vs veh, PPP3R1 / RFU, PIK3R1 / Fold change vs veh, PIK3R1 / RFU, HNRNPA1 / Fold change vs veh, HNRNPA1 / RFU, RNF170 / Fold change vs veh, RNF170 / RFU, ZNF28 / Fold change vs veh, ZNF28 / RFU, RNGTT / Fold change vs veh, RNGTT / RFU, OGT / Fold change vs veh, OGT / RFU, BRD1 / Fold change vs veh, BRD1 / RFU, MARS / Fold change vs veh, MARS / RFU, ZNF655 / Fold change vs veh, ZNF655 / RFU, FAHD1 / Fold change vs veh, FAHD1 / RFU, BDP1 / Fold change vs veh, BDP1 / RFU, LRRCC1 / Fold change vs veh, LRRCC1 / RFU, ARID1A / Fold change vs veh, ARID1A / RFU, ZNF146 / Fold change vs veh, ZNF146 / RFU, ZNF330 / Fold change vs veh, ZNF330 / RFU, GPN3 / Fold change vs veh, GPN3 / RFU, C9orf123 / Fold change vs veh, C9orf123 / RFU, N4BP2L2 / Fold change vs veh, N4BP2L2 / RFU, ARFIP1 / Fold change vs veh, ARFIP1 / RFU, FAM179B / Fold change vs veh, FAM179B / RFU, BCL10 / Fold change vs veh, BCL10 / RFU, UHRF1BP1L / Fold change vs veh, UHRF1BP1L / RFU, BET1 / Fold change vs veh, BET1 / RFU, CNOT2 / Fold change vs veh, CNOT2 / RFU, ZNF268 / Fold change vs veh, ZNF268 / Fold change vs veh, ZNF507 / RFU, DGCR2 / Fold change vs veh, DGCR2 / RFU, WDSUB1 / Fold change vs veh, WDSUB1 / Fold change vs veh, HSP90B1 /// MIR3652 / RFU, ADSS / Fold change vs veh, ADSS / RFU, GK / Fold change vs veh, GK / RFU, ZNF148 / Fold change vs veh, ZNF148 / RFU, TAF9 / Fold change vs veh, TAF9 / RFU, SLC1A5 / Fold change vs veh, SLC1A5 / RFU, SLMO2 / Fold change vs veh, SLMO2 / RFU, ABCC4 / Fold change vs veh, ABCC4 / RFU, LOC101060439 /// RAP1B / Fold change vs veh, LOC101060439 /// RAP1B / RFU, RFX7 / Fold change vs veh, RFX7 / RFU, GTPBP10 / Fold change vs veh, GTPBP10 / RFU, CNEP1R1 / Fold change vs veh, CNEP1R1 / RFU, BIVM-ERCC5 /// ERCC5 / Fold change vs veh, BIVM-ERCC5 /// ERCC5 / RFU, ILF3 / Fold change vs veh, ILF3 / RFU 11762660_at / Fold change /veh 11762660_at / RFU VCAN (11757783_s_at) / Fold change /veh VCAN (11757783_s_at) / RFU DDX43 (11728927_at) / Fold change /veh DDX43 (11728927_at) / RFU KRT8 (11758188_x_at) / Fold change /veh KRT8 (11758188_x_at) / RFU NKD1 (11759106_at) / Fold change /veh NKD1 (11759106_at) / RFU SRD5A1 (11742802_a_at) / Fold change /veh SRD5A1 (11742802_a_at) / RFU TPSAB1 /// TPSB2 (11721975_s_at) / Fold change /veh TPSAB1 /// TPSB2 (11721975_s_at) / RFU GSTM3 (11746129_a_at) / Fold change /veh GSTM3 (11746129_a_at) / RFU IL23R (11737362_x_at) / Fold change /veh IL23R (11737362_x_at) / RFU TMEM51 (11727254_a_at) / Fold change /veh TMEM51 (11727254_a_at) / RFU PIWIL2 (11732686_x_at) / Fold change /veh PIWIL2 (11732686_x_at) / RFU ORM1 (11744905_x_at) / Fold change /veh ORM1 (11744905_x_at) / RFU CCDC152 (11743942_at) / Fold change /veh CCDC152 (11743942_at) / RFU ECM1 (11717891_a_at) / Fold change /veh ECM1 (11717891_a_at) / RFU IL23R (11748794_a_at) / Fold change /veh IL23R (11748794_a_at) / RFU TNFAIP8L3 (11732012_x_at) / Fold change /veh TNFAIP8L3 (11732012_x_at) / RFU MBOAT4 (11741988_at) / Fold change /veh MBOAT4 (11741988_at) / RFU 11764193_at / Fold change /veh 11764193_at / RFU TMEM53 (11763286_at) / Fold change /veh TMEM53 (11763286_at) / RFU MAGEB2 (11727129_at) / Fold change /veh MAGEB2 (11727129_at) / RFU TMEM200A (11744735_a_at) / Fold change /veh TMEM200A (11744735_a_at) / RFU CCDC152 (11751479_a_at) / Fold change /veh CCDC152 (11751479_a_at) / RFU FAM211A (11726209_a_at) / Fold change /veh FAM211A (11726209_a_at) / RFU RGS16 (11746705_a_at) / Fold change /veh RGS16 (11746705_a_at) / RFU VCAN (11755009_s_at) / Fold change /veh VCAN (11755009_s_at) / RFU RHOB (11743442_s_at) / Fold change /veh RHOB (11743442_s_at) / RFU RGS16 (11720943_a_at) / Fold change /veh RGS16 (11720943_a_at) / RFU RGS16 (11720944_at) / Fold change /veh RGS16 (11720944_at) / RFU, VPS4B / Fold change vs veh, VPS4B / RFU, CREB1 / Fold change vs veh, CREB1 / RFU, DNAJC13 / Fold change vs veh, DNAJC13 / RFU, GNAQ / Fold change vs veh, GNAQ / RFU, CDK5R1 / Fold change vs veh, CDK5R1 / RFU, ZRANB3 / Fold change vs veh, ZRANB3 / RFU, CUL4A / Fold change vs veh, CUL4A / RFU, CCNY / Fold change vs veh, CCNY / RFU, UFL1 / Fold change vs veh, UFL1 / RFU, COG3 / Fold change vs veh, COG3 / RFU, DIAPH2 / Fold change vs veh, DIAPH2 / RFU, SKA2 / Fold change vs veh, SKA2 / RFU, AFF3 / Fold change vs veh, AFF3 / RFU, LMF1 / Fold change vs veh, LMF1 / RFU, IPO11 / Fold change vs veh, IPO11 / RFU, DFFB / Fold change vs veh, DFFB / RFU, FOXP1 / Fold change vs veh, FOXP1 / RFU, CARD8 / Fold change vs veh, CARD8 / RFU, STRN3 / Fold change vs veh, STRN3 / RFU, ADK / Fold change vs veh, ADK / RFU, RASSF2 / Fold change vs veh, RASSF2 / RFU, WIPF1 / Fold change vs veh, WIPF1 / RFU, LARP1B / Fold change vs veh, LARP1B / RFU, RASA1 / Fold change vs veh, RASA1 / RFU, RB1 / Fold change vs veh, RB1 / RFU, PPFIA1 / Fold change vs veh, PPFIA1 / RFU, MAT2A / Fold change vs veh, MAT2A / RFU, CCT5 / Fold change vs veh, CCT5 / RFU, WDR92 / Fold change vs veh, WDR92 / RFU, CUX1 / Fold change vs veh, CUX1 / RFU, TTC7A / Fold change vs veh, TTC7A / RFU, TMEM135 / Fold change vs veh, TMEM135 / RFU, DEPTOR / Fold change vs veh, DEPTOR / RFU, CPM / Fold change vs veh, CPM / RFU, DNAJB6 / Fold change vs veh, DNAJB6 / RFU, CACNA2D3 / Fold change vs veh, CACNA2D3 / RFU, DTX4 / Fold change vs veh, DTX4 / RFU, TFCP2 / Fold change vs veh, TFCP2 / RFU, GMCL1 /// GMCL1P1 / Fold change vs veh, GMCL1 /// GMCL1P1 / RFU, AEBP2 / Fold change vs veh, AEBP2 / RFU, SNHG1 /// SNORD22 /// SNORD25 /// SNORD26 /// SNORD27 /// SNORD28 /// SNORD29 /// SNORD31 / Fold change vs veh, SNHG1 /// SNORD22 /// SNORD25 /// SNORD26 /// SNORD27 /// SNORD28 /// SNORD29 /// SNORD31 / Fold change (Aza/veh), C12orf56 (ProbeSet 11735607_a_at) / Fold change (ACY-1035/veh), C12orf56 (ProbeSet 11735607_a_at) / Fold change (Aza/veh), FGFR1OP (ProbeSet 11751329_s_at) / Fold change (ACY-1035/veh), FGFR1OP (ProbeSet 11751329_s_at) / Fold change (Aza/veh), VPS36 (ProbeSet 11739960_a_at) / Fold change (ACY-1035/veh), VPS36 (ProbeSet 11739960_a_at) / RFU SYPL1 (11715823_x_at) / Fold change /veh SYPL1 (11715823_x_at) / RFU IGFBP7 (11715501_s_at) / Fold change /veh IGFBP7 (11715501_s_at) / RFU REEP3 (11722064_at) / Fold change /veh REEP3 (11722064_at) / RFU IGLL1 (11728026_x_at) / Fold change /veh IGLL1 (11728026_x_at): dose or concentration left out as unconfirmed. To be noted: MV-4-11 cells, 48 hours.

SMILES strings stand for the structures.

With `Nc1ncn([C@@H]2O[C@H](CO)[C@@H](O)[C@H]2O)c(=O)n1` [azacitidine], the “Fold change /veh C10orf10 (11716522_x_at)” value is listed as 1.15.
